Key:
[1] = Zeta potential measurement (Malvern Zetasizer Nano ZS); assay type: physicochemical; conditions: 0.1 g dispersed in 9.9 g of distilled water
Description: • Oven: DFO-240, by MRC, Israel • Thermo-rheometer: Thermo Scientific (Germany) Haake Mars III, with a C20/1° spindle, a gap of 0.052 mm, and a shear rate of 10 sec^−1 • Sonicator: VCX 750, by Sonics & Materials, USA • Dynamic Light Scattering and Zeta Potential measurement: Malvern Zetasizer Nano ZS, Malvern Instruments Ltd., UK • Conductivity meter: Eutech CON 700 by Thermo Fisher Scientific, USA • CryoTEM: Talos 200C by Thermo Fisher Scientific, USA, with a Lacey grid • Fluorescence microscope: BX60 microscope, equipped with a digital camera model DP73, by Olympus, Japan
8 g of double distilled water were placed in a 20 ml glass vial. 2 g of the nano-dispersion ND1 obtained in Example 2 were added, and the contents of the vial were shaken by hand for about 10 seconds until a homogeneous mixture was obtained (referred to as charged ND1 or cND1). Zeta potential of the mixture was measured by Malvern Zetasizer Nano ZS and found to be −14.7 mV. Unless otherwise stated, all measurements made with this instrument (e.g., zeta potential and particle size distribution) were performed on samples diluted 1:100 in double distilled water. All pH measurements reported in this and following examples were made at least using a pH test strip adapted to the pH range of relevance, and confirmed in some cases by using a suitable pH meter.

[2] = system: skin of pigs' ears; experiment: Ex vivo penetration of composition into skin of pigs' ears (fluorescent marker histology); assay type: in vitro ADME; conditions: Nile red marker; pig ear skin, 20 hours at 32° C.
Description: The distribution of nano-elements of the present compositions in various skin layers was tested ex vivo by applying core-shell and core-multi-shells (including a second shell forming active agent) nano-elements onto the skin of pigs' ears, the cores of the tested compositions including a fluorescent dye (Nile red) allowing histological monitoring.
The following test and control compositions were prepared and used as set in Table 9.
Tested compositions (2) and (3) were prepared by adding 2 mg of Nile red fluorescent marker during the preparation of the CSSC/fatty amine premix, as described in Example 6. All tested compositions were stored in closed containers at room temperature until they were used.
The compositions were tested on three freshly harvested pig ears, collected on the same day, and kept fresh and cooled till use. The ears were washed with excess saline solution and wiped dry. They were then immobilized for the duration of the study by taping them onto a glass surface, their inner side facing down. Each ear was marked on its outer side with 6 circles having a diameter of about 1 cm. […]
The above tissue sections were evaluated by an expert for the presence and intensity of the marker using a fluorescence microscope at objective magnification of ×10 and ×20.

Zeta potential of active agent alone [1] [mV] | Compound | penetration into skin layers (fluorescence microscopy) [2]
−17 | Sodium hyaluronate [LMW HA] | 
 | CCN(CC)c1ccc2nc3c4ccccc4c(=O)cc-3oc2c1 [Nile red, 9-(diethylamino)-5H-benzo[a]phenoxazin-5-one] | No penetration of the fluorescent marker was observed

Reference: patent US20250144039A1, “COMPOSITIONS COMPRISING SURFACE MODIFIED GLOBULAR NANO-PARTICLES” (LANDA LABS (2012) LTD., priority 2022, published 2025)
